Source: PubChem BioAssay AID2060504 (Molecular Pharmacology Branch, DTP, NCI, 2025)
Values joined by “and” are separate entries in the source; they are usually repeats but may differ in a detail not shown here. Equal values may be shown once.

Test system: 636577-100-R-J1-PDC complex spheroid viability
Experiment: Anticancer human tumor 636577-100-R-J1-PDC patient-derived endometrial adenocarcinoma cell line growth inhibition [GQUAD]
Conditions: for viability, T/C: stronger effect = lower value
Text: DNA G-quadruplex Stabilizer Agents in Combinations in Complex Spheroids
A high-throughput screen of multi-cell type tumor spheroids was designed to identify active combinations of DNA G-quadruplex stabilizer agents and targeted small molecules. Complex spheroids include a stromal component modeled by human endothelial cells (HUVEC) and fibroblasts modeled by human mesenchymal stem cells (MSCs). The concentration ranges selected for each drug and investigational agent were based upon clinically achievable concentrations if the clinical Cmax of the agent was known.
Compounds. The drugs and investigational agents: pidnarulex (CX-5461; NSC782164), APTO-253 (NSC789042), BRACO-19 (NSC847499), peposertib (NSC802822), ceralasertib (NSC780249), elimusertib (NSC800525), camonsertib (NSC841442), AZD-1390 (NSC803789), olaparib (NSC753686), talazoparib (NSC767125), ART-558 (NSC835418), sotorasib (NSC818433), MRTX-1133 (NSC836407), SN-38 (NSC673596), topotecan (NSC609699), etoposide (NSC141540), doxorubicin (NSC123127), gemcitabine (NSC613327), 5-fluorouracil (NSC19893), paclitaxel (NSC125973), vemurafenib (NSC761431), panobinostat (NSC761190), R-306465 (JNJ-16241199; NSC773264), adavosertib (NSC754352), TP-3654 (NSC805149), carboplatin (NSC241240), KSQ-4279 (NSC840948), and staurosporine (NSC755774) were obtained from the National Cancer Institute (NCI) Developmental Therapeutics Program Chemical Repository (34). The FDA-approved anticancer drug set is available from the NCI Developmental Therapeutics Program. […] The stock solutions were prepared in dimethyl sulfoxide (DMSO, Sigma-Aldrich, St. Louis, MO, cat. D2650) at 800-fold the tested concentration and stored at -70 degrees C prior to their use. All drugs and investigational agents were tested over a range starting from a high concentration at or near the clinical Cmax and decreasing in half-log increments. If the clinical Cmax for an agent had not been determined, the highest concentration tested was 10 microM.
2.3 Cell Culture. All cells were maintained in an incubator at 37 degrees C and 5% CO2 with 95% humidity. The PDC lines were cultured according to standard operating procedures established by the NCI PDMR. All PDCs were thawed and cultured in Matrigel-coated flasks prepared with a working solution of 1X Ham's F-12 nutrient mix, without supplementation (Invitrogen, cat. 11765054), 100 U/mL penicillin-streptomycin (Invitrogen, cat. 15140122), and 2.5% Matrigel (Corning Inc., cat. 354248) for the first three passages. The 857933-349-R-J2-PDC line was cultured in 6C/Colon 1B media, which includes advanced DMEM/F-12 (Thermo Fisher Scientific, cat. 12634028), 10 mM HEPES (Thermo Fisher Scientific, cat. 15630080), 1X GlutaMAX supplement (Thermo Fisher Scientific, cat. 35050061), 0.1 mg/mL primocin (InvivoGen, cat. ant-pm-2), 10% defined fetal bovine serum, heat inactivated (HyClone Laboratories Inc., cat. SH30070.03HI), 50% L-WRN conditioned media (ATCC, cat. CRL-3276), 1.25 mM N-Acetyl-L-cysteine (Sigma-Aldrich, cat. A9165), 10 mM nicotinamide (Sigma-Aldrich, cat. N0636), 1X B-27 supplement (Thermo Fisher Scientific, cat. 17504044), 1X N-2 supplement (Thermo Fisher Scientific, cat. 17502048), 10 microM Y-27632 dihydrochloride (Tocris Bioscience, cat. 1254), and 50 ng/mL human EGF recombinant protein (Thermo Fisher Scientific, cat. PHG0311). The 485176-168-R4-J1-PDC line was cultured in Panc media, which includes all 6C/Colon 1B media components plus 100 ng/mL human FGF-10 (Thermo Fisher Scientific, cat. 100-26), 500 nM SB-431542 (Selleckchem, cat. S1067), and gastrin (Tocris, cat. 3006).
[…]
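Further: viability read after seven days of drug exposure.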
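Wherever viability, T/C is given: luminescence signal used as a proxy for viable cells; 100% = DMSO vehicle control wells.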

For `CC[C@@]1(O)C(=O)OCc2c1cc1n(c2=O)Cc2cc3c(CN(C)C)c(O)ccc3nc2-1` + CN(C)c1ccc(Nc2c3ccc(NC(=O)CCN4CCCC4)cc3nc3cc(NC(=O)CCN4CCCC4)ccc23)cc1, which IC50 (curve of first compound, second compound 0.0316 µM) is on record?
Its IC50 is 18.5 nM.

What about the IC50 (curve of first compound, second compound 0.1 µM) of the same compound?
The IC50 was 18.6 nM.

What about the IC50 (curve of first compound, second compound 0.316 µM) of the same compound?
The IC50 was 18.7 nM.

And the IC50 (curve of first compound, second compound 1 µM)?
The IC50 was 11.8 nM.

What about the IC50 (curve of first compound, second compound 3.16 µM) of the same compound?
The IC50 was under 0.999 nM.

And the IC50 (curve of first compound, second compound 10 µM)?
Its IC50 is under 0.999 nM.

And the viability, T/C (second compound 0.0316 µM, first compound 0.000999 µM)?
The viability, T/C was 108%.

And the viability, T/C (second compound 0.0316 µM, first compound 0.00316 µM)?
The viability, T/C was 75.3%.

And the viability, T/C (second compound 0.0316 µM, first compound 0.00999 µM)?
Its viability, T/C is 72.1%.

And the viability, T/C (second compound 0.0316 µM, first compound 0.0316 µM)?
The viability, T/C was 37.2%.

And the viability, T/C (second compound 0.0316 µM, first compound 0.0999 µM)?
The viability, T/C was 21.1%.

And the viability, T/C (second compound 0.0316 µM, first compound 0.316 µM)?
Its viability, T/C is 27.1%.

What about the viability, T/C (second compound 0.1 µM, first compound 0.000999 µM) of the same compound?
Its viability, T/C is 88.6%.

And the viability, T/C (second compound 0.1 µM, first compound 0.00316 µM)?
The viability, T/C was 74.7%.

And the viability, T/C (second compound 0.1 µM, first compound 0.00999 µM)?
The viability, T/C was 74.2%.

What about the viability, T/C (second compound 0.1 µM, first compound 0.0316 µM) of the same compound?
Its viability, T/C is 29.5%.

What about the viability, T/C (second compound 0.1 µM, first compound 0.0999 µM) of the same compound?
Its viability, T/C is 22.3%.

And the viability, T/C (second compound 0.1 µM, first compound 0.316 µM)?
Its viability, T/C is 23.6%.

What about the viability, T/C (second compound 0.316 µM, first compound 0.000999 µM) of the same compound?
Its viability, T/C is 77.8%.

What about the viability, T/C (second compound 0.316 µM, first compound 0.00316 µM) of the same compound?
Its viability, T/C is 65.9%.

What about the viability, T/C (second compound 0.316 µM, first compound 0.00999 µM) of the same compound?
Its viability, T/C is 62.7%.

What about the viability, T/C (second compound 0.316 µM, first compound 0.0316 µM) of the same compound?
Its viability, T/C is 41.5%.

What about the viability, T/C (second compound 0.316 µM, first compound 0.0999 µM) of the same compound?
Its viability, T/C is 22%.

What about the viability, T/C (second compound 0.316 µM, first compound 0.316 µM) of the same compound?
The viability, T/C was 23.9%.

What about the viability, T/C (second compound 1 µM, first compound 0.000999 µM) of the same compound?
Its viability, T/C is 64.3%.

What about the viability, T/C (second compound 1 µM, first compound 0.00316 µM) of the same compound?
The viability, T/C was 96.1%.

And the viability, T/C (second compound 1 µM, first compound 0.00999 µM)?
Its viability, T/C is 54%.

What about the viability, T/C (second compound 1 µM, first compound 0.0316 µM) of the same compound?
Its viability, T/C is 30.4%.

What about the viability, T/C (second compound 1 µM, first compound 0.0999 µM) of the same compound?
The viability, T/C was 24.4%.

What about the viability, T/C (second compound 1 µM, first compound 0.316 µM) of the same compound?
The viability, T/C was 22.7%.

And the viability, T/C (second compound 3.16 µM, first compound 0.000999 µM)?
Its viability, T/C is 34.8%.

And the viability, T/C (second compound 3.16 µM, first compound 0.00316 µM)?
The viability, T/C was 45.4%.

What about the viability, T/C (second compound 3.16 µM, first compound 0.00999 µM) of the same compound?
The viability, T/C was 37.6%.

What about the viability, T/C (second compound 3.16 µM, first compound 0.0316 µM) of the same compound?
The viability, T/C was 26.2%.

And the viability, T/C (second compound 3.16 µM, first compound 0.0999 µM)?
The viability, T/C was 21.2%.

And the viability, T/C (second compound 3.16 µM, first compound 0.316 µM)?
Its viability, T/C is 20%.

And the viability, T/C (second compound 10 µM, first compound 0.000999 µM)?
The viability, T/C was 6.05%.

What about the viability, T/C (second compound 10 µM, first compound 0.00316 µM) of the same compound?
Its viability, T/C is 6.87%.

What about the viability, T/C (second compound 10 µM, first compound 0.00999 µM) of the same compound?
The viability, T/C was 5.66%.

What about the viability, T/C (second compound 10 µM, first compound 0.0316 µM) of the same compound?
The viability, T/C was 4.71%.

And the viability, T/C (second compound 10 µM, first compound 0.0999 µM)?
Its viability, T/C is 5.96%.

And the viability, T/C (second compound 10 µM, first compound 0.316 µM)?
The viability, T/C was 4.24%.

With `COc1ccc([C@@H](O)c2cc(-c3ncnc4cc(N5CCOCC5)ccc34)c(F)cc2Cl)nn1` as the compound, how does the viability, T/C (compound 0.0316 µM) read?
The viability, T/C was 93% and 95.4% and 33.8%.

And the viability, T/C (compound 0.1 µM)?
Its viability, T/C is 96.2% and 61.9% and 97.4%.

What about the viability, T/C (compound 0.316 µM) of the same compound?
Its viability, T/C is 86.4% and 88.9% and 65.4%.

What about the viability, T/C (compound 1 µM) of the same compound?
The viability, T/C was 55.2% and 54.6% and 49.7%.

And the viability, T/C (compound 3.16 µM)?
The viability, T/C was 42.5% and 43.1% and 36.6%.

And the viability, T/C (compound 10 µM)?
Its viability, T/C is 28.1% and 22.5% and 25.5%.

And the IC50 (curve of compound)?
The IC50 was 1580 nM and 1970 nM and 1170 nM.
